Experimental data taken from patent EP3822285A1, “VARIANT NISIN PEPTIDES” (University College Cork-National University of Ireland, Cork, priority 2019, dated 2021).
Converted amounts (≈) assume the structure as drawn. “And” between values parts separate entries of the source, which are not always exact repeats. Equal entries are not always repeated. Marks after values point to notes of the source that are not given here.

Legend:
Format in all cases: cell-based
[1] = system: L. lactis MG1363; assay: Deferred antagonism assay; details: producing strain
Protocol: (§1) Mutagenesis of the nisA gene was carried out as described previously (Field et al., 2008). Briefly, saturation mutagenesis was carried out using pDF05 (pCI372-nisA) as template and using oligonucleotides containing an NNK codon in place of each native codon. PCR amplification was performed in a 50 µl reaction containing approximately 0.5 ng of target DNA (pDF05), 1 unit Phusion High-Fidelity DNA polymerase (Finnzymes, Finland), 1 mM dNTPs and 500 ng each of the appropriate forward and reverse oligonucleotide. The reaction was pre-heated at 98°C for 2 min, and then incubated for 29 cycles at 98°C for 30 s, 55°C for 15 s and 72°C for 3 min 30 s, and then finished by incubating at 72°C for 3 min 30 s. Amplified products were treated with Dpn1 (Stratagene) for 60 min at 37°C to digest template DNA and purified using the QIAquick PCR purification kit. Following transformation of E. coli Top 10 cells plasmid DNA was isolated and sequenced using primers pCI372FOR (5' […] 3') and pCI372REV (5' […] 3') to verify that mutagenesis had taken place. Approximately 150 transformants were chosen at random for each position and inoculated into 96-well plates containing GM17 chloramphenicol, incubated overnight and stored at -20°C after addition of 80% glycerol. Deferred antagonism assays were performed by replicating strains on GM17 agar plates and allowing them to grow overnight before overlaying with BHI agar (0.75% w/v agar) seeded with the appropriate indicator strain.
(§2) Previously, site-saturation mutagenesis-based strategies were used to generate strains producing bioengineered nisin derivatives in which all residues not involved in lanthionine ring formation (i.e. I1, T2, 14, S5, L6, P9, G10, K12, G14, A15, L16, M17, G18, N20, M21, K22, A24, H27, S29 130, H31, V32, S33 and K34) were each randomised to potentially all other natural amino acids, or whereby all three residues of the hinge-region (NMK) were randomised simultaneously (Rouse et al., 2012, Healy et al., 2013, Field et al., 2008). […] From this screen 76 variants of interest from the first round of screening were incorporated into a "mini-bank" for subsequent further analysis. The number of indicator strains was increased from five to thirteen to include S. uberis 43382, S. uberis DPC5344, S. dysgalactiae ATCC43078, L. lactis 303, L. cremoris KH, Lactobacillus bulgaricus NCDO2489, Lb. helveticus 2079 and Lb. acidophilus ATCC4356 (Table 1). Following this second round of screening, 6 variants of interest were deemed worthy of closer inspection. DNA sequencing of the mutated nisin gene as well as mass spectrometric analysis of the peptide produced by each strain established that these corresponded to nisin M17Q (methionine at position 17 altered to glutamine), nisin T2L (threonine 2 leucine) nisin HTK, VGA, VGV or VGT (where the hinge residues Asn-Met-Lys have been altered to His-Thr-Lys, Val-Gly-Ala, Val-Gly-Val or Val-Gly-Thr respectively). […] As a result, these derivatives were eliminated from this study, but will be the subject of further investigation as potential anti-mastitis antimicrobials. […] In the case of the derivatives nisin T2L and nisin HTK, the activity appeared reduced and equivalent to nisin A respectively (Figure 1), while improved activity was observed by both derivatives against S. agalactiae ATCC13813 and S. aureus RF122 (Table 2). On this basis, the nisin derivatives M17Q, T2L and HTK were selected for purification and specific activity assays. Purified peptides were subjected to Mass Spectrometry to confirm the correct mass in each case. In the case of T2L and HTK derivatives, the threonine remained in the unmodified form (data not shown).

[2] = system: S. agalactiae ATCC13813; assay: Deferred antagonism assay; details: producing strain
Protocol: as §1, §2

[3] = system: L. lactis HP; assay: Deferred antagonism assay; details: producing strain
Protocol: as §1, §2

[4] = system: S. aureus RF122; assay: Deferred antagonism assay; details: producing strain
Protocol: as §1, §2

[5] = system: T. aquaticus; assay: Minimum inhibitory concentration assay (Thermus); details: pure peptide, mean of triplicate assays
In short: (§3)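 Plates pretreated with BSA to limit peptide binding. Cells from mid-log (OD600 ∼0.5) Castenholz subculture, inoculated at ∼10^5 cfu/ml; 55°C, 3 days, triplicate; endpoint visible growth.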

[6] = system: T. scotoductus SE-1; assay: Minimum inhibitory concentration assay (Thermus); details: pure peptide, mean of triplicate assays
In short: as §3

[7] = system: T. rehai; assay: Minimum inhibitory concentration assay (Thermus); details: pure peptide, mean of triplicate assays
In short: as §3

[8] = system: T. brockianus; assay: Minimum inhibitory concentration assay (Thermus); details: pure peptide, mean of triplicate assays
In short: as §3

[9] = system: T. oshimai; assay: Minimum inhibitory concentration assay (Thermus); details: pure peptide, mean of triplicate assays
In short: as §3

[10] = system: T. thermophilus HB27; assay: Minimum inhibitory concentration assay (Thermus); details: pure peptide, mean of triplicate assays
In short: as §3

[11] = system: Thermus thermophilus HB27; assay: Agar diffusion assay with cell free supernatant of producing strains; details: zone diameter relative to Nisin A wild type (100)
In short: (§4)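 Cell-free supernatant (50 µl) from overnight nisin A or variant-producing L. lactis cultures placed in wells of Castenholz agar seeded with indicator strain. Plates incubated 55°C for 3 days; zone of clearance measured, reflecting combined peptide yield and specific activity; triplicate.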

[12] = system: Thermus scotoductus SE-1; assay: as above; details: zone diameter relative to Nisin A wild type (100)
In short: as §4

[13] = system: S. aureus DPC 5245; assay: Minimum inhibitory concentration assay; details: purified peptide
Protocol: (§5) Minimum inhibitory concentration determinations were carried out in triplicate in 96 well microtitre plates. 96 well microtitre plates were pre-treated with bovine serum albumin (BSA) prior to addition of the peptides. Briefly, to each well of the microtitre plate 200 µL of phosphate buffered saline (PBS) containing 1% (w/v) bovine serum albumin (PBS/BSA) was added and incubated at 37°C for 30 min. The wells were washed with 200 µL PBS and allowed to dry. Target strains were grown overnight in the appropriate conditions and medium, subcultured into fresh broth and allowed to grow to an OD600 of ∼0.5, diluted to a final concentration of 10^5 cfu ml^-1 in a volume of 0.2 ml. The lyophilised peptides were resuspended in the appropriate media to a stock concentration of 30 µM. Wild type nisin and nisin mutant peptides were adjusted to a 7.5 or 5.0 µM or 500 nM starting concentration and 2-fold serial dilutions of each peptide were made in 96 well plates for a total of 12 dilutions.
(§6) To confirm that the observed enhanced activity of the nisin variants was due to increased specific activity, the activity of purified peptides were assessed using classical broth-based minimum inhibitory concentration (MIC) determination assays. […] Also included were the lactic acid bacteria targets L. lactis MG1363, L. lactis spp. lactis HP, B. longum UCC44b and Lb acidophilus ATCC 4356.

[14] = system: S. aureus 272; assay: Minimum inhibitory concentration assay
Protocol: as §5, §6

[15] = system: S. aureus ST528(MRSA); assay: Minimum inhibitory concentration assay
Protocol: as §5, §6

[16] = system: S. aureus DPC 5243; assay: Minimum inhibitory concentration assay; details: purified peptide
Protocol: as §5, §6

[17] = system: S. aureus DPC 5247; assay: Minimum inhibitory concentration assay; details: purified peptide
Protocol: as §5, §6

[18] = system: S. aureus 5971; assay: Minimum inhibitory concentration assay
Protocol: as §5, §6

[19] = system: L. lactis HP; assay: Minimum inhibitory concentration assay
Protocol: as §5, §6

[20] = system: S. aureus ST534(MRSA); assay: Minimum inhibitory concentration assay
Protocol: as §5, §6

[21] = system: S. aureus 513; assay: Minimum inhibitory concentration assay; details: purified peptide
Protocol: as §5, §6

[22] = system: Lb. acidophilus ATCC 4356
Protocol: as §5, §6

[23] = system: B. longum UCC 44b
Protocol: as §5, §6

[24] = system: S. aureus strains; assay: Minimum inhibitory concentration assay, panel of S. aureus strains; details: panel of 12 S. aureus isolates; compared to nisin A
Protocol: as §5, §6

## C=C(NC(=O)[C@@H](NC(=O)[C@H](Cc1c[nH]cn1)NC(=O)[C@@H](NC(=O)[C@H](CO)NC(=O)[C@@H]1CS[C@@H](C)[C@H]2NC(=O)[C@H](C)NC(=O)[C@H](NC(=O)[C@H](C)NC(=O)CNC(=O)[C@@H](NC(=O)[C@@H]3CS[C@@H](C)[C@@H](NC(=O)[C@H](CCCCN)NC(=O)[C@@H]4CS[C@@H](C)[C@@H](NC(=O)[C@@H]5CSC[C@@H](NC(=O)/C(=C/C)NC(=O)[C@@H](N)[C@@H](C)CC)C(=O)N[C@@H]([C@@H](C)CC)C(=O)NC(=C)C(=O)N[C@@H](CC(C)C)C(=O)N5)C(=O)N5CCC[C@H]5C(=O)NCC(=O)N4)C(=O)NCC(=O)N[C@@H](C)C(=O)N[C@@H](CC(C)C)C(=O)N[C@@H](CCSC)C(=O)NCC(=O)N3)C(C)C)[C@H](C)SC[C@H](NC2=O)C(=O)N[C@@H](Cc2c[nH]cn2)C(=O)N1)[C@@H](C)CC)C(C)C)C(=O)N[C@@H](CCCCN)C(=O)O [VGA, nisin VGA]
[1]
  zone of inhibition (area of the zone of inhibition minus the area of the spot): 230.92 ± 4.04 mm2
[2]
  zone of inhibition (area of the zone of inhibition minus the area of the spot): 234.96 ± 25.45 mm2
[3]
  zone of inhibition (area of the zone of inhibition minus the area of the spot): 362.16 ± 6.77 mm2
[4]
  zone of inhibition (area of the zone of inhibition minus the area of the spot): 138.17 ± 8.12 mm2
[5]
  MIC: 0.0156 µM (≈ 0.05 µg/mL)
[6]
  MIC: 0.125 µM (≈ 0.401 µg/mL)
[7]
  MIC: 0.125 µM (≈ 0.401 µg/mL)
[8]
  MIC: 0.125 µM (≈ 0.401 µg/mL)
[9]
  MIC: 0.0156 µM (≈ 0.05 µg/mL)
[10]
  MIC: 0.0312 µM (≈ 0.1 µg/mL)
[11]
  % difference: 169* (0.0002) %
[12]
  % of wild type: 127* (0.022) %

## C=C(NC(=O)[C@@H](NC(=O)[C@H](Cc1c[nH]cn1)NC(=O)[C@@H](NC(=O)[C@H](CO)NC(=O)[C@@H]1CS[C@@H](C)[C@H]2NC(=O)[C@H](C)NC(=O)[C@H](NC(=O)[C@H](CCCCN)NC(=O)[C@H](CCSC)NC(=O)[C@H](CC(N)=O)NC(=O)[C@@H]3CS[C@@H](C)[C@@H](NC(=O)[C@H](CCCCN)NC(=O)[C@@H]4CS[C@@H](C)[C@@H](NC(=O)[C@@H]5CSC[C@@H](NC(=O)[C@H](CC(C)C)NC(=O)[C@@H](N)[C@@H](C)CC)C(=O)N[C@@H]([C@@H](C)CC)C(=O)NC(=C)C(=O)N[C@@H](CC(C)C)C(=O)N5)C(=O)N5CCC[C@H]5C(=O)NCC(=O)N4)C(=O)NCC(=O)N[C@@H](C)C(=O)N[C@@H](CC(C)C)C(=O)N[C@@H](CCSC)C(=O)NCC(=O)N3)[C@H](C)SC[C@H](NC2=O)C(=O)N[C@@H](Cc2c[nH]cn2)C(=O)N1)[C@@H](C)CC)C(C)C)C(=O)N[C@@H](CCCCN)C(=O)O [T2L, nisin T2L]
[1]
  zone of inhibition (area of the zone of inhibition minus the area of the spot): 80.11 ± 12.18 mm2
[2]
  zone of inhibition (area of the zone of inhibition minus the area of the spot): 194.44 ± 6.22 mm2
[3]
  zone of inhibition (area of the zone of inhibition minus the area of the spot): 134.12 ± 19.00 mm2
[4]
  zone of inhibition (area of the zone of inhibition minus the area of the spot): 100.05 ± 14.96 mm2
[13]
  Specific activity (MIC): 0.5 Mg/L and 0.156 µM
[14]; compared to nisin A
  fold enhanced activity: 4 fold
[14]; purified peptide
  Specific activity (MIC): 0.75 Mg/L and 0.234 µM
[15]; S. aureus ST528 (MRSA), compared to nisin A
  fold enhanced activity: 4 fold
[15]; S. aureus ST528(MRSA), purified peptide
  Specific activity (MIC): 0.125 Mg/L and 0.039 µM
[16]
  Specific activity (MIC): 0.5 Mg/L and 0.156 µM
[17]
  Specific activity (MIC): 0.5 Mg/L and 0.156 µM
[18]; compared to nisin A
  fold improved activity: 16 fold
[18]; purified peptide
  Specific activity (MIC): 1.5 Mg/L and 0.468 µM
[19]; compared to wild-type nisin A
  fold reduction in potency: 2 fold
[19]; purified peptide
  Specific activity (MIC): 0.4 Mg/L and 0.125 µM
[20]; S. aureus ST 534 (MRSA), compared to nisin A
  fold enhanced activity: 4 fold
[20]; S. aureus ST534(MRSA), purified peptide
  Specific activity (MIC): 0.25 Mg/L and 0.078 µM
[21]
  Specific activity (MIC): 3 Mg/L and 0.937 µM
[22]
  fold reduction in specific activity compared to wild type nisin A: 4 fold
[22]; purified peptide
  Specific activity (MIC): 0.12 Mg/L and 0.044 µM
[23]
  fold decreased activity compared to wild type peptide: 2 fold
[24]
  number of S. aureus strains with enhanced specific activity: 9
